# Laboratory results reported in paper PMC9091059 (Nature biotechnology, 2021).
# Like-named read-outs stand apart in the source and are kept apart here.
# Key:
# human CB1R = human CB1R (Homo sapiens, UniProt P21554); experiment: BRET Gβγ sensor assay, cells expressing CB1R; format: cell-based; conditions: 20 μM 2-AG
# eCB2.0 [1] = experiment: BRET Gβγ sensor assay, cells expressing eCB2.0; format: cell-based, human; conditions: 20 μM 2-AG
# wildtype CB1R = wildtype CB1R (Homo sapiens, UniProt P21554); experiment: Gq-i Ca2+ imaging assay; format: cell-based; conditions: HEK293T cells expressing CB1R
# Chain of wildtype CB1R (P21554 whole entry): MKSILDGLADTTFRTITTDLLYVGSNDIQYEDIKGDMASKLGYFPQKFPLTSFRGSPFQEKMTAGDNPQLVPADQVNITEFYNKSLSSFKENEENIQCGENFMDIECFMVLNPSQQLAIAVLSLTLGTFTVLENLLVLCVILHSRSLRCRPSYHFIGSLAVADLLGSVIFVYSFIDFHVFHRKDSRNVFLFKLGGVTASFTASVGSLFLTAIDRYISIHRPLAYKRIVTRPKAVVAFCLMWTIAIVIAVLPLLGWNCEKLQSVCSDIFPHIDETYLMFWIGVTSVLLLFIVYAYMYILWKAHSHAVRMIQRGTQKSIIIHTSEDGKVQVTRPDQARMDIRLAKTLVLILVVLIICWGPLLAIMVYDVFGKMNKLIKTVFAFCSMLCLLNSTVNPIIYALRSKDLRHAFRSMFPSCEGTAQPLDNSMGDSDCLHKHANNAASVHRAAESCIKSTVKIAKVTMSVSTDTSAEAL
# [2] = system: GRABeCBmut (eCBmut) sensor; format: cell-based, human; conditions: cultured rat cortical neurons, even at 100 μM
# eCBmut = experiment: BRET Gβγ sensor assay, cells expressing eCBmut; format: cell-based, human; conditions: 20 μM 2-AG
# [3] = system: GRABeCBmut (eCBmut) sensor; experiment: eCBmut fluorescence response to ligands in HEK293T cells; format: cell-based, human; conditions: all concentrations tested
# eCB2.0 [4] = experiment: Gq-i Ca2+ imaging assay; format: cell-based, human; conditions: HEK293T cells expressing eCB2.0
# [5] = system: evoked eCB release in dorsolateral striatum (DLS) slices; parameters: species or system mouse
# [6] = system: eCB2.0 fluorescence in hippocampal slices; experiment: 2-photon imaging of eCB2.0 in acute hippocampal CA1 slices; parameters: species or system mouse
# [7] = system: spontaneous transient eCB2.0 signals in cultured neurons; format: cell-based, rat
# [8] = system: stimulus-evoked eCB2.0 signal in cultured rat cortical neurons; format: cell-based; conditions: 20 electrical pulses, 68 min after application; MAGL (JZL184) or FAAH (URB597) inhibition
# Chain of human CB1R (P21554 whole entry): as above
structure (smiles),measurement,setting,value
"CCCCC/C=C\C/C=C\C/C=C\C/C=C\CCCC(=O)OC(CO)CO [2-AG, 2-arachidonoylglycerol]",BRET change (Gβγ activation),human CB1R,robust increase in BRET
same,BRET change (Gβγ activation),eCB2.0 [1],no effect on BRET
same,jRGECO1a Ca2+ response (G protein activation via Gαq-i),wildtype CB1R,increased jRGECO1a fluorescent response in a dose-dependent manner
same,eCBmut fluorescence response,[2],neither 2-AG nor AEA elicited a response
same,BRET change (Gβγ activation),eCBmut,no effect on BRET
same,eCBmut fluorescence response,[3],no response
same,jRGECO1a Ca2+ response (G protein activation via Gαq-i),eCB2.0 [4],failed in inducing jRGECO1a response
"CCCCC/C=C\C/C=C\C/C=C\C/C=C\CCCC(=O)NCCO [AEA, anandamide]",eCBmut fluorescence response,[3],no response
Cc1c(C(=O)NN2CCCCC2)nn(-c2ccc(Cl)cc2Cl)c1-c1ccc(I)cc1 [AM251],effect on electrically evoked eCB2.0 signal,[5],blocked the response
same,effect on AEA-induced eCB2.0 fluorescence increase,[6],reversed
same,effect on electrically evoked eCB2.0 signal,[6],eliminated the signal induced by even 100 field stimuli
same,effect on spontaneous eCB2.0 transients,[7],no longer observed
O=C(Oc1ccc([N+](=O)[O-])cc1)N1CCC(C(O)(c2ccc3c(c2)OCO3)c2ccc3c(c2)OCO3)CC1 [JZL184],effect on decay time constant of evoked eCB2.0 signal,[8],significantly increased the decay time constant
O=C(NN1CCCCC1)c1nn(-c2ccc(Cl)cc2Cl)c2c1CCCc1cc(Cl)ccc1-2 [NESS0327],effect on spontaneous eCB2.0 transients,"[7]; NESS0327 1 μM, TTX 1 μM",no longer observed
NC(=O)c1cccc(-c2cccc(OC(=O)NC3CCCCC3)c2)c1 [URB597],effect on decay time constant of evoked eCB2.0 signal,[8],only a slight—albeit significant—effect on the decay time constant
